These results are taken from patent publication US8937039B2, “Peptide-based peroxidase inhibitors and methods of using same” (The Medical College of Wisconsin, Inc., priority 2009, dated 2015).

“Also recorded” adds a separate entry of the source. Residues, ends and D or L forms follow the SMILES beside them.

A short description of data set [1]: Solubility in aqueous buffers. The format is physicochemical.
For data set [2], the target named is T1, MPO (Homo sapiens, UniProt P05164).
T1 sequence (P05164 49-745): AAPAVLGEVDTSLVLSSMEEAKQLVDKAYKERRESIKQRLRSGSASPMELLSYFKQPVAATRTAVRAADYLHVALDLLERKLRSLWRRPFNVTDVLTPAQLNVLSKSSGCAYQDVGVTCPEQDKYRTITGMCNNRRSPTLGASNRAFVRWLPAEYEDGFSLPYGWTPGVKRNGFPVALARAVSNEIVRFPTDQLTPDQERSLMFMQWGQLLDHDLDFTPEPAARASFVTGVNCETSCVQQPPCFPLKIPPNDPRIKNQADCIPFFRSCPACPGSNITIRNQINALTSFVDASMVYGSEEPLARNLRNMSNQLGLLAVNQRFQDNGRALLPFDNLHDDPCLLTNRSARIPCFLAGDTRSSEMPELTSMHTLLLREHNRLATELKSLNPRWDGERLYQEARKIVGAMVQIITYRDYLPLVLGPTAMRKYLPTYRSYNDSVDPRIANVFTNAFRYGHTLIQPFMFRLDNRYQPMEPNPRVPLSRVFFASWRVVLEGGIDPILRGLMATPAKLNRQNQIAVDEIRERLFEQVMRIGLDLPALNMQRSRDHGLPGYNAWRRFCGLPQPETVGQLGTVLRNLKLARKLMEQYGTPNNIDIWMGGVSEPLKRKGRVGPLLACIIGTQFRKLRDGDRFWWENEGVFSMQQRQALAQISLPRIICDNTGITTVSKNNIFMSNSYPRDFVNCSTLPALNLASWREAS
Briefly: MPO-mediated LDL oxidation (conjugated diene formation, 234 nm). The class given is biochemical. More on the design: purchased Lee Biosolutions (St. Louis, Mo.). The conditions noted are these: 25 μM; for MPO/H2O2/nitrite-mediated LDL oxidation (in words): H2O2 100 μM, NaNO2 100 μM; for MPO/H2O2-mediated LDL oxidation in the absence of nitrite (in words): without NaNO2. As to the method: MPO-mediated oxidation of LDL. […] LDL oxidation was monitored at 234 nm at room temperature on a HP UV/VIS spectrometer. Absorbance traces represent the average of duplicate experiments.
MPO-mediated LDL Oxidation. […] Rates of LDL oxidation were monitored at room temperature at 234 nm, the wavelength maximum for conjugated dienes.
MPO-mediated LDL Conjugated Diene Formation: Reaction mixtures contained LDL (0.15 mg/mL), NaNO2 (100 μM), H2O2 (100 μM), MPO (20 nM) and increasing concentrations of KYC or equimolar concentrations of various compounds in a phosphate buffer (100 mM, pH 7.4) containing DTPA (100 μM). Rates of LDL conjugated diene formation were determined by following changes in absorbance at 234 nm, the wavelength maximum for conjugated dienes, on a UV-Vis spectrophotometer (Agilent Model 8453) at room temperature.

For data set [3], the target named is T1, MPO. Nature of the data set: MPO-catalyzed HOCl production (taurine/TMB assay). The class given is biochemical. The arrangement: purchased Lee Biosolutions (St. Louis, Mo.). The following applies: for Dose-dependent effect on MPO-catalyzed HOCl production (in words): increasing concentrations, FIG. 14C/14D; for Effect on MPO HOCl production at equimolar concentration (in words): 12.5 μM. As to the method: MPO-mediated HOCl Production. MPO (20 nM) was incubated with H2O2 (50 μM), NaCl (150 mM), taurine (5 mM) and increasing concentrations of KYC in phosphate buffer (100 mM, pH 7.4) which also contained diethylene triamine pentaacetic acid (DTPA, 100 μM) to prevent non-specific, divalent metal cation oxidation for 30 min. Reactions were halted by addition of catalase. Chlorotaurine was quantified using the 3,3-,5,5-tetramethylbenzidine (TMB) assay. Briefly, 400 μL of reaction solution was mixed with 100 μL of 2 mM TMB, 100 μM NaI containing 10% dimethylformamide (DMF) in 400 mM acetate buffer (pH 5.4). After 5 min, absorbance (650 nm) was recorded on a UV/Vis spectrophotometer (Agilent Model 8453).
MPO-catalyzed HOCl Production: MPO (20 nM) was incubated with H2O2 (50 μM), NaCl (150 mM), taurine (5 mM) and increasing concentrations of KYC in a phosphate buffer (100 mM, pH 7.4) containing diethylene triamine pentaacetic acid (DTPA, 100 μM) to prevent non-specific, divalent metal cation oxidation for 30 min. Reactions were halted by addition of catalase (2,000 units/mL). Chlorotaurine was quantified using the TMB assay (66). Briefly, 400 μL of reaction solution was mixed with 100 μL of 2 mM TMB, 100 μM NaI containing 10% dimethylformamide (DMF) in 400 mM acetate buffer (pH 5.4). After 5 min, absorbance (650 nm) was recorded on a UV/Vis spectrophotometer (Agilent Model 8453).

Data set [4] deals with T1, MPO. The following applies: reported, order of magnitude; cited from earlier work.
A further data set has as its system SS/Mcw rat hearts. Briefly: Ischemia/reperfusion injury in isolated perfused hearts. The following applies: FIG. 5B. The source says: Ischemia/Reperfusion (I/R) Injury in Isolated Hearts. Rats used in this study received humane care in compliance with the Guide for the Care and Use of Laboratory Animals, by the National Research Council. Rats were maintained on a low salt (0.4% NaCl) diet with unlimited access to water. Environmental influences were minimized by maintaining rats in identical housing conditions. Dahl S (SS/Mcw male rats at 8 weeks of age were used for this study.
Modified Krebs-Henseleit bicarbonate buffer was prepared containing the following components (in mM): 118.5 NaCl, 25.0 NaHCO3, 4.8 KCl, 1.2 MgSO4.6H2O, and 1.2 KH2PO4 (pH 7.4 when gassed with 95% O2-5% CO2) in which the calcium content was 1.8. Glucose (11.1 mM) was added to the perfusate. Before use, all perfusion fluids were filtered through cellulose acetate membranes with a pore size of 5 μm. To this perfusate, drugs (KAA, KYC) were added as needed. Animals were weighed, and heparin was administered intraperitoneally based on weight (150 IU/kg). Anesthesia was induced with pentobarbital sodium (30 mg/kg ip). […] Left ventricular pressure (LVP) was measured isovolumetrically with a transducer connected to a thin, saline-filled latex balloon inserted into the left ventricle through the mitral valve from an incision in the left atrium. […]

On to `N[C@@H](Cc1ccc(O)cc1)C(=O)N[C@@H](CS)C(=O)O` [YC, reference compound] (H-Tyr-Cys-OH; N-terminus and C-terminus assumed), for which the “Solubility in water / aqueous buffers (in words)” value in data set [1] is “difficult to dissolve in aqueous buffers”.

For the compound `CC(=O)N[C@@H](CCCCN)C(=O)N[C@@H](Cc1ccccc1)C(=O)N[C@@H](CS)C(N)=O` [KFC, N-acetyl Lysylphenylalanylcysteine amid] (Ac-Lys-Phe-Cys-NH2), the “MPO/H2O2/nitrite-mediated LDL oxidation (in words)” value on MPO [2] is “increased the lag phase and delayed, but did not totally inhibit”. The “Dose-dependent effect on MPO-catalyzed HOCl production (in words)” value on MPO [3] is given as “weaker inhibitor”.

Turning to `N[C@@H](Cc1ccc(O)cc1)C(=O)O` [Tyr, tyrosine], the “MPO/H2O2/nitrite-mediated LDL oxidation (in words)” value on MPO [2] is “accelerated and enhanced”. On MPO [2], the “MPO/H2O2-mediated LDL oxidation in the absence of nitrite (in words)” value (from here on “MPO/H2O2-mediated LDL oxidation”) was “increased”. Besides, the “Effect on MPO HOCl production at equimolar concentration (in words)” value on MPO [3] is listed as “little, if any effect”; on MPO [3] (listed as Tyrosine), “little if any effect”.

As to “N-acetyl Lysyltyrosylcyeteine amide [KYS]”, the “MPO/H2O2/nitrite-mediated LDL oxidation (in words)” value at MPO [2] is given as “accelerated LDL oxidation”. The “Dose-dependent effect on MPO-catalyzed HOCl production (in words)” value at MPO [3] is “failed to inhibit; also recorded: not an inhibitor”.

For `N[C@@H](Cc1c[nH]c2ccccc12)C(=O)O` [Trp, tryptophan], on MPO [2], the “MPO/H2O2/nitrite-mediated LDL oxidation (in words)” value was “did not inhibit but actually enhanced” and the “MPO/H2O2-mediated LDL oxidation” value is listed as “increased”. For the same compound, the “Effect on MPO HOCl production at equimolar concentration (in words)” value at MPO [3] was “effective inhibitor”.

Consider `N[C@@H](CCC(=O)N[C@@H](CS)C(=O)NCC(=O)O)C(=O)O` [GSH, glutathione], for which the “Rate of reaction with MPO/H2O2 systems” value on MPO [4] is 10 to 100 M⁻¹ s⁻¹. In addition, at MPO [2], the “MPO/H2O2/nitrite-mediated LDL oxidation (in words)” value is reported as “ineffective” and the “MPO/H2O2-mediated LDL oxidation” value was “inhibited; also recorded: did not increase LDL oxidation”.

For the compound `CC(=O)N[C@@H](CCCCN)C(=O)N[C@@H](Cc1c[nH]c2ccccc12)C(=O)N[C@@H](CS)C(N)=O` [KWC] (Ac-Lys-Trp-Cys-NH2), the “Cardioprotection in SS/Mcw rat hearts (in words)” value with SS/Mcw rat hearts was “increase cardioprotection”.
